Test results taken from US20130243794A1 (priority 2010, published 2013).
Entries after “also recorded” stand apart in the source; their conditions may differ.

How the values were obtained:
baboons = conditions: in vivo
Bacillus anthracis = system: Bacillus anthracis; parameters: species or system baboons (Papio c. cynocephalus); conditions: in vivo

Row | Substance | circulating bDNA after toxin administration (baboons) | blood cultures (bacterial colony counts) (Bacillus anthracis) | decreases in fibrinogen (and in platelets) (Bacillus anthracis) | liver and kidney function (ALT, AST, BUN, creatinine) (Bacillus anthracis) | peak bDNA load (16S bacterial DNA, plasma qPCR) (Bacillus anthracis) | peak plasma mtDNA (CytB) level during anthrax bacteremia (Bacillus anthracis) | plasma bDNA (16S-rDNA) level and fall off over time (Bacillus anthracis) | plasma mtDNA levels after resolution of bacteremia (Bacillus anthracis) | respiratory rate (RR) / tachypnea (Bacillus anthracis) | survival (Bacillus anthracis)
1 | Shiga toxin 1 [ST1] | insignificant levels | – | – | – | – | – | – | – | – | –
2 | activated protein C [aPC] | – | no effect; also recorded: no significant difference between groups | not mitigated | markedly spared | no significant effect | approximately 200 ng/mL | essentially identical fall off; also recorded: no effect; also recorded: does not affect | mtDNA levels began falling after 24 hours; also recorded: plasma mtDNA levels decayed; also recorded: reduction in mtDNA | RR remained normal; also recorded: prevents tachypnea; also recorded: RR was unchanged | the animals survived; also recorded: all these animals survived
